Source: US10358463B2, “Immunomodulators” (BRISTOL-MYERS SQUIBB COMPANY, priority 2016, dated 2019)
Numbered stars: 1 amine (or outer) side, 2 acyl side, 3 side chain; on linkers, the order of the positions; unused ones are H or OH. Bridge positions count the residues as written; N and C are the ends. Square brackets hold non-standard residues; d marks the D form. Peptide text beside a SMILES is read from it. ξ: configuration not given here. Trp(1-CH2CONHSO2Me) = CS(=O)(=O)NC(=O)Cn1cc(C[C@H](N)C(=O)O)c2ccccc21; Trp(7-aza,1-CH2COOH) = N[C@@H](Cc1cn(CC(=O)O)c2ncccc12)C(=O)O; X1 = O=C(O)Cn1c(C(=O)O)c(C[C@H](N[*:1])C(=O)[*:2])c2ccccc21; X10 = COc1ccc2c(c1)c(C[C@H](N[*:1])C(=O)[*:2])cn2CC(=O)O; X17 = O=C([C@H](Cc1cn(Cc2nnn[nH]2)c2ccccc12)N[*:1])[*:2]; X12 = O=C(O)Cc1nn(C[C@H](N[*:1])C(=O)[*:2])c2ccccc12; X13 = O=C(O)Cc1nc(C[C@H](N[*:1])C(=O)[*:2])c2ccccn12; X5 = O=C(O)Cn1nc(C[C@H](N[*:1])C(=O)[*:2])c2ccccc21; X2 = O=C(O)Cc1cn(CC(N[*:1])C(=O)[*:2])c2cccnc12; X8 = O=C(O)Cn1cc(CC(N[*:1])C(=O)[*:2])c2cncnc21; X4 = Cc1cccc2c(CC(N[*:1])C(=O)[*:2])n[nH]c12; Phe(4-Cl) = N[C@@H](Cc1ccc(Cl)cc1)C(=O)O; Hyp = O=C(O)[C@@H]1C[C@@H](O)CN1; NMeNle = CCCC[C@H](NC)C(=O)O; Pen = CC(C)(S)[C@H](N)C(=O)O; Pip = O=C(O)[C@@H]1CCCCN1; NMeA = CN[C@@H](C)C(=O)O; Dab = NCC[C@H](N)C(=O)O; Dap = NC[C@H](N)C(=O)O; ξP = O=C(O)C1CCCN1; Sar = CNCC(=O)O

Target: T1, PD-1-Ig binding to PD-L1-TVMV-His (PD-L1-His) (Homo sapiens, UniProt Q9NZQ7)
T1 construct: hPDL1 (19-239)-TVMV-His; TVMV protease cleavage site (C); made in house; host or cells: HEK293T cells
Assay: PD-1/PD-L1 Homogenous Time-Resolved Fluorescence (HTRF) binding assay
Conditions: PD-1-Ig (20 nM)/PD-L1-His (10 nM)
Source text: The ability of the macrocyclic peptides of the present disclosure to bind to PD-L1 was investigated using a PD-1/PD-L1 Homogenous Time-Resolved Fluorescence (HTRF) binding assay.
Homogenous Time-Resolved Fluorescence (HTRF) Assays of Binding of Soluble PD-1 to Soluble PD-L1. Soluble PD-1 and soluble PD-L1 refers to proteins with carboxyl-end truncations that remove the transmembrane-spanning regions and are fused to heterologous sequences, specifically the Fc portion of the human immunoglobuling G sequence (Ig) or the hexahistidine epitope tag (His). All binding studies were performed in an HTRF assay buffer consisting of dPBS supplemented with 0.1% (w/v) bovine serum albumin and 0.05% (v/v) Tween-20. For the PD-1-Ig/PD-L1-His binding assay, inhibitors were pre-incubated with PD-L1-His (10 nM final) for 15 m in 4 μl of assay buffer, followed by addition of PD-1-Ig (20 nM final) in 1 μl of assay buffer and further incubation for 15 m. PD-L1 fusion proteins from either human, cynomologous macaques, mouse, or other species were used. HTRF detection was achieved using europium crypate-labeled anti-Ig monoclonal antibody (1 nM final) and allophycocyanin (APC) labeled anti-His monoclonal antibody (20 nM final). Antibodies were diluted in HTRF detection buffer and 5 μl was dispensed on top of binding reaction. The reaction was allowed to equilibrate for 30 minutes and signal (665 nm/620 nm ratio) was obtained using an EnVision fluorometer. Additional binding assays were established between PD-1-Ig/PD-L2-His (20 and 5 nM, respectively), CD80-His/PD-L1-Ig (100 and 10 nM, respectively) and CD80-His/CTLA4-Ig (10 and 5 nM, respectively). Binding/competition studies between biotinylated Compound No. 71 and human PD-L1-His were performed as follows. Macrocyclic peptide inhibitors were pre-incubated with PD-L1-His (10 nM final) for 60 minutes in 4 μl of assay buffer followed by addition of biotinylated Compound No. 71 (0.5 nM final) in 1 μl of assay buffer. Binding was allowed to equilibrate for 30 minutes followed by addition of europium crylated labeled Streptavidin (2.5 pM final) and APC-labeled anti-His (20 nM final) in 5 μl of HTRF buffer. The reaction was allowed to equilibrate for 30 m and signal (665 nm/620 nm ratio) was obtained using an EnVision fluorometer.
Recombinant Proteins. Carboxyl-truncated human PD-1 (amino acids 25-167) with a C-terminal human Ig epitope tag [hPD-1 (25-167)-3S-IG] and human PD-L1 (amino acids 18-239) with a C-terminal His epitope tag [hPD-L1(19-239)-tobacco vein mottling virus protease cleavage site (TVMV)-His] were expressed in HEK293T cells and purified sequentially by recombinant Protein A affinity chromatography and size exclusion chromatography. Human PD-L2-His (Sino Biologicals), CD80-His (Sino Biologicals), CTLA4-Ig (RnD Systems) were all obtained through commercial sources.

T1 sequence (Q9NZQ7 with tags, fused parts or gaps): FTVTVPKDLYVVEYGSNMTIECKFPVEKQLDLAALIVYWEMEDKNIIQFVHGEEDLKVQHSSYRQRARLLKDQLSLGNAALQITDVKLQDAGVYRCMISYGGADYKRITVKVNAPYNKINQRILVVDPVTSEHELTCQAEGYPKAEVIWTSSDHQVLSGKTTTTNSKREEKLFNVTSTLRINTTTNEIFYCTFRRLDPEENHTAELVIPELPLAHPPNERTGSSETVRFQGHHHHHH

SMILES | IC50 (range class) [nM] | IC50 (numeric value) [nM]
CCCC[C@H]1C(=O)N(C)[C@@H](CCCC)C(=O)N[C@@H](CC(C)C)C(=O)N[C@H](C(=O)NCC(N)=O)CSCC(=O)N[C@@H](Cc2ccc(O)cc2)C(=O)N(C)[C@@H](C)C(=O)N[C@@H](CC(N)=O)C(=O)N2CCC[C@H]2C(=O)N[C@@H](CN)C(=O)N[C@@H](CC(C)C)C(=O)N2C[C@H](O)C[C@H]2C(=O)N[C@@H](Cc2c[nH]c3ccccc23)C(=O)N[C@@H](CCN)C(=O)N[C@@H](Cn2nc(CC(=O)O)c3ccccc32)C(=O)N1C [Example 1012] ({CH2CO}-Y[NMeA]NP[Dap]L[Hyp]W[Dab][X12][NMeNle][NMeNle]LCG-NH2; thioether N-14) | 10 to 99 | –
CCCC[C@H]1C(=O)N(C)[C@@H](CCCC)C(=O)N[C@@H](CC(C)C)C(=O)N[C@H](C(N)=O)CSCC(=O)N[C@@H](Cc2ccc(O)cc2)C(=O)N(C)[C@@H](C)C(=O)N[C@@H](CC(N)=O)C(=O)N2CCC[C@H]2C(=O)N[C@@H](CN)C(=O)N[C@@H](CC(C)C)C(=O)N2C[C@H](O)C[C@H]2C(=O)N[C@@H](Cc2c[nH]c3ccccc23)C(=O)N[C@@H](CCN)C(=O)N[C@@H](Cc2cn(CC(=O)O)c3ccc(OC)cc23)C(=O)N1C [Example 10503] ({CH2CO}-Y[NMeA]NP[Dap]L[Hyp]W[Dab][X10][NMeNle][NMeNle]LC-NH2; thioether N-14) | 1 to 9.9 | –
CCCC[C@H]1C(=O)N(C)[C@@H](CCCC)C(=O)N[C@@H](CC(C)C)C(=O)N[C@H](C(N)=O)CSCC(=O)N[C@@H](Cc2ccc(O)cc2)C(=O)N(C)[C@@H](C)C(=O)N[C@@H](CC(N)=O)C(=O)N2CCC[C@H]2C(=O)N[C@@H](CN)C(=O)N[C@@H](CC(C)C)C(=O)N2C[C@H](O)C[C@H]2C(=O)N[C@@H](Cc2c[nH]c3ccccc23)C(=O)N[C@@H](CCN)C(=O)N[C@@H](Cc2nn(CC(=O)O)c3ccccc23)C(=O)N1C [Example 10501] ({CH2CO}-Y[NMeA]NP[Dap]L[Hyp]W[Dab][X5][NMeNle][NMeNle]LC-NH2; thioether N-14) | 1 to 9.9 | –
CCCC[C@H]1C(=O)N(C)[C@@H](CCCC)C(=O)N[C@@H](CC(C)C)C(=O)N[C@H](C(N)=O)C(C)(C)SCC(=O)N[C@@H](Cc2ccc(Cl)cc2)C(=O)N2CCCC[C@H]2C(=O)N[C@@H](CC(=O)O)C(=O)N2CCC[C@H]2C(=O)N[C@@H](CN)C(=O)N[C@@H](CCC(=O)O)C(=O)N2C[C@H](O)C[C@H]2C(=O)N[C@@H](Cc2c[nH]c3ccccc23)C(=O)N[C@@H](CCN)C(=O)N[C@@H](Cc2cn(CC(=O)NS(C)(=O)=O)c3ccccc23)C(=O)N1C [Example 1005] ({CH2CO}-[Phe(4-Cl)][Pip]DP[Dap]E[Hyp]W[Dab][Trp(1-CH2CONHSO2Me)][NMeNle][NMeNle]L[Pen]-NH2; thioether N-14) | 1 to 9.9 | –
CCCC[C@H]1C(=O)N(C)[C@@H](CCCC)C(=O)N[C@@H](C)C(=O)N[C@H](C(=O)NCC(N)=O)CSCC(=O)N[C@@H](Cc2ccc(O)cc2)C(=O)N(C)[C@@H](C)C(=O)N[C@@H](CC(N)=O)C(=O)N2CCCC2C(=O)N[C@@H](Cc2cnc[nH]2)C(=O)N[C@@H](CCC(N)=O)C(=O)N2C[C@H](O)C[C@H]2C(=O)N[C@@H](Cc2c[nH]c3ccccc23)C(=O)N[C@@H](CO)C(=O)NC(Cc2n[nH]c3c(C)cccc23)C(=O)N1C (stereo partly drawn) [Example 1288] ({CH2CO}-Y[NMeA]N[ξP]HQ[Hyp]WS[X4][NMeNle][NMeNle]ACG-NH2; thioether N-14) | – | 7140
CCCC[C@H]1C(=O)N(C)[C@@H](CCCC)C(=O)N[C@@H](CC(C)C)C(=O)N[C@H](C(=O)NCC(N)=O)CSCC(=O)N[C@@H](Cc2ccc(O)cc2)C(=O)N(C)[C@@H](C)C(=O)N[C@@H](CC(N)=O)C(=O)N2CCC[C@H]2C(=O)N[C@@H](CN)C(=O)N[C@@H](CC(C)C)C(=O)N2C[C@H](O)C[C@H]2C(=O)N[C@@H](Cc2c[nH]c3ccccc23)C(=O)N[C@@H](CCN)C(=O)N[C@@H](Cc2nc(CC(=O)O)n3ccccc23)C(=O)N1C [Example 1016] ({CH2CO}-Y[NMeA]NP[Dap]L[Hyp]W[Dab][X13][NMeNle][NMeNle]LCG-NH2; thioether N-14) | 1 to 9.9 | –
CCCC[C@H]1C(=O)N(C)[C@@H](CCCC)C(=O)N[C@@H](CC(C)C)C(=O)N[C@H](C(N)=O)CSCC(=O)N[C@@H](Cc2ccc(O)cc2)C(=O)N(C)[C@@H](C)C(=O)N[C@@H](CC(N)=O)C(=O)N(C)CC(=O)N[C@@H](CN)C(=O)N[C@@H](CC(C)C)C(=O)N2C[C@H](O)C[C@H]2C(=O)N[C@@H](Cc2c[nH]c3ccccc23)C(=O)N[C@@H](CCN)C(=O)N[C@@H](Cc2c(C(=O)O)n(CC(=O)O)c3ccccc23)C(=O)N1C [Example 1018] ({CH2CO}-Y[NMeA]N[Sar][Dap]L[Hyp]W[Dab][X1][NMeNle][NMeNle]LC-NH2; thioether N-14) | 10 to 99 | –
CCCC[C@H]1C(=O)N(C)[C@@H](CCCC)C(=O)N[C@@H](CC(C)C)C(=O)N[C@H](C(=O)NCC(N)=O)CSCC(=O)N[C@@H](Cc2ccc(O)cc2)C(=O)N(C)[C@@H](C)C(=O)N[C@@H](CC(=O)O)C(=O)N2CCC[C@H]2C(=O)N[C@@H](Cc2cnc[nH]2)C(=O)N[C@@H](CCCCN)C(=O)N2C[C@H](O)C[C@H]2C(=O)N[C@@H](Cc2c[nH]c3ccccc23)C(=O)N[C@@H](CCCCN)C(=O)N[C@@H](Cc2cn(CC(=O)NS(C)(=O)=O)c3ccccc23)C(=O)N1C [Example 1019] ({CH2CO}-Y[NMeA]DPHK[Hyp]WK[Trp(1-CH2CONHSO2Me)][NMeNle][NMeNle]LCG-NH2; thioether N-14) | 1 to 9.9 | –
CCCC[C@H]1C(=O)N(C)[C@@H](CCCC)C(=O)N[C@@H](CC(C)C)C(=O)N[C@H](C(=O)NCC(N)=O)CSCC(=O)N[C@@H](Cc2ccc(O)cc2)C(=O)N(C)[C@@H](C)C(=O)N[C@@H](CC(N)=O)C(=O)N2CCC[C@H]2C(=O)N[C@@H](CN)C(=O)N[C@@H](CC(C)C)C(=O)N2C[C@H](O)C[C@H]2C(=O)N[C@@H](Cc2c[nH]c3ccccc23)C(=O)N[C@@H](CCN)C(=O)NC(Cn2cc(CC(=O)O)c3ncccc32)C(=O)N1C (stereo partly drawn) [Example 10003] ({CH2CO}-Y[NMeA]NP[Dap]L[Hyp]W[Dab][X2][NMeNle][NMeNle]LCG-NH2; thioether N-14) | 100 to 990 | –
CCCC[C@H]1C(=O)N(C)[C@@H](CCCC)C(=O)N[C@@H](CC(C)C)C(=O)N[C@H](C(=O)NCC(N)=O)CSCC(=O)N[C@@H](Cc2ccc(O)cc2)C(=O)N(C)[C@@H](C)C(=O)N[C@@H](CC(N)=O)C(=O)N2CCC[C@H]2C(=O)N[C@@H](CN)C(=O)N[C@@H](CC(C)C)C(=O)N2C[C@H](O)C[C@H]2C(=O)N[C@@H](Cc2c[nH]c3ccccc23)C(=O)N[C@@H](CCN)C(=O)NC(Cc2cn(CC(=O)O)c3ncncc23)C(=O)N1C (stereo partly drawn) [Example 10002] ({CH2CO}-Y[NMeA]NP[Dap]L[Hyp]W[Dab][X8][NMeNle][NMeNle]LCG-NH2; thioether N-14) | 100 to 990 | –
CCCC[C@H]1C(=O)N(C)[C@@H](CCCC)C(=O)N[C@@H](CC(C)C)C(=O)N[C@H](C(=O)NCC(N)=O)CSCC(=O)N[C@@H](Cc2ccc(O)cc2)C(=O)N(C)[C@@H](C)C(=O)N[C@@H](CC(N)=O)C(=O)N2CCC[C@H]2C(=O)N[C@@H](CN)C(=O)N[C@@H](CC(C)C)C(=O)N2C[C@H](O)C[C@H]2C(=O)N[C@@H](Cc2c[nH]c3ccccc23)C(=O)N[C@@H](CCN)C(=O)N[C@@H](Cc2cn(Cc3nnn[nH]3)c3ccccc23)C(=O)N1C [Example 1020] ({CH2CO}-Y[NMeA]NP[Dap]L[Hyp]W[Dab][X17][NMeNle][NMeNle]LCG-NH2; thioether N-14) | > 1000 | –
CCCC[C@H]1C(=O)N(C)[C@@H](CCCC)C(=O)N[C@@H](CC(C)C)C(=O)N[C@H](C(N)=O)CSCC(=O)N[C@@H](Cc2ccc(O)cc2)C(=O)N(C)[C@@H](C)C(=O)N[C@@H](CC(N)=O)C(=O)N2CCC[C@H]2C(=O)N[C@@H](CN)C(=O)N[C@@H](CC(C)C)C(=O)N2C[C@H](O)C[C@H]2C(=O)N[C@@H](Cc2c[nH]c3ccccc23)C(=O)N[C@@H](CCN)C(=O)N[C@@H](Cc2cn(CC(=O)O)c3ncccc23)C(=O)N1C [Example 10504] ({CH2CO}-Y[NMeA]NP[Dap]L[Hyp]W[Dab][Trp(7-aza,1-CH2COOH)][NMeNle][NMeNle]LC-NH2; thioether N-14) | 1 to 9.9 | –
